“And” between values parts separate entries of the source, which are not always exact repeats. Identical values can stand only once. Toxic doses and inconclusive results are not listed. Rule for the calls: active = survival T/C of 150% or more; inactive = T/C below 125% in these data.
Test system: CD2F1 mice, L1210 leukemia ip, survival T/C
Test: NCI In Vivo Anticancer Drug Screen. Data for tumor model L1210 Leukemia (intraperitoneal) in CD2F1 (CDF1) mice
Settings: higher = longer survival
How it was run: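 Antitumor effect is scored in animals hosting a serially transplanted tumor. Values compare compound-dosed animals against vehicle-only controls as a simple quotient.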

[1] = endpoint: mean survival time, dose: 25.0 mg/kg/injection, schedule: Q01DX009 (ip), vehicle: Klucel (hydroxypropylcellulose) (HPC)
[2] = endpoint: mean survival time, dose: 50.0 mg/kg/injection, schedule: Q01DX009 (ip), vehicle: Klucel (hydroxypropylcellulose) (HPC)
[3] = endpoint: mean survival time, dose: 100.0 mg/kg/injection, schedule: Q01DX009 (ip), vehicle: Klucel (hydroxypropylcellulose) (HPC)
[4] = endpoint: mean survival time, dose: 100.0 mg/kg/injection, schedule: Q04DX003 (ip), vehicle: Klucel (hydroxypropylcellulose) (HPC)
[5] = endpoint: mean survival time, dose: 100.0 mg/kg/injection, schedule: Q01DX009 (ip), vehicle: saline with Tween-80
[6] = endpoint: mean survival time, dose: 100.0 mg/kg/injection, schedule: Q04DX003 (ip), vehicle: saline with Tween-80
[7] = endpoint: mean survival time, dose: 200.0 mg/kg/injection, schedule: Q01DX009 (ip), vehicle: saline with Tween-80
[8] = endpoint: mean survival time, dose: 200.0 mg/kg/injection, schedule: Q04DX003 (ip), vehicle: saline with Tween-80
[9] = endpoint: mean survival time, dose: 400.0 mg/kg/injection, schedule: Q01DX009 (ip), vehicle: saline with Tween-80
[10] = endpoint: mean survival time, dose: 400.0 mg/kg/injection, schedule: Q04DX003 (ip), vehicle: saline with Tween-80
[11] = endpoint: mean survival time, dose: 100.0 mg/kg/injection, schedule: Q04DX002 (ip), vehicle: saline with Tween-80
[12] = endpoint: mean survival time, dose: 200.0 mg/kg/injection, schedule: Q04DX002 (ip), vehicle: saline with Tween-80
[13] = endpoint: mean survival time, dose: 400.0 mg/kg/injection, schedule: Q04DX002 (ip), vehicle: saline with Tween-80
[14] = endpoint: mean survival time, dose: 50.0 mg/kg/injection, schedule: Q01DX009 (ip), vehicle: saline with Tween-80
[15] = endpoint: mean survival time, dose: 50.0 mg/kg/injection, schedule: Q01DX009 (ip), vehicle: saline
[16] = endpoint: mean survival time, dose: 100.0 mg/kg/injection, schedule: Q01DX009 (ip), vehicle: saline

Measured: T/C

COc1ccc(Cl)[n+]([O-])n1
inactive: endpoint: mean survival time, dose: 3.12 mg/kg/injection, schedule: Q01DX009 (ip), vehicle: Klucel (hydroxypropylcellulose) (HPC) 94 % of control and 103 % of control | endpoint: mean survival time, dose: 6.25 mg/kg/injection, schedule: Q01DX009 (ip), vehicle: Klucel (hydroxypropylcellulose) (HPC) 97 % of control and 101 % of control | endpoint: mean survival time, dose: 12.5 mg/kg/injection, schedule: Q01DX009 (ip), vehicle: Klucel (hydroxypropylcellulose) (HPC) 96 % of control and 106 % of control | [1] 98 % of control and 106 % of control | [2] 94 % of control and 101 % of control | [3] 101 % of control and 104 % of control

CC(=O)OC1OC(=O)C(C)(C(C)=O)C1C (stereo unspecified)
inactive: endpoint: median survival time, dose: 2.5 mg/kg/injection, schedule: Q01DX009 (ip), vehicle: distilled water + alcohol 103 % of control | endpoint: median survival time, dose: 5.0 mg/kg/injection, schedule: Q01DX009 (ip), vehicle: distilled water + alcohol 101 % of control | endpoint: median survival time, dose: 10.0 mg/kg/injection, schedule: Q01DX009 (ip), vehicle: distilled water + alcohol 104 % of control | endpoint: median survival time, dose: 20.0 mg/kg/injection, schedule: Q01DX009 (ip), vehicle: distilled water + alcohol 103 % of control

O=C(N/N=C/c1ccccc1)c1ccccc1O
inactive: [3] 96 % of control | [4] 100 % of control | endpoint: mean survival time, dose: 200.0 mg/kg/injection, schedule: Q01DX009 (ip), vehicle: Klucel (hydroxypropylcellulose) (HPC) 97 % of control | endpoint: mean survival time, dose: 200.0 mg/kg/injection, schedule: Q04DX003 (ip), vehicle: Klucel (hydroxypropylcellulose) (HPC) 94 % of control | endpoint: mean survival time, dose: 400.0 mg/kg/injection, schedule: Q01DX009 (ip), vehicle: Klucel (hydroxypropylcellulose) (HPC) 94 % of control | endpoint: mean survival time, dose: 400.0 mg/kg/injection, schedule: Q04DX003 (ip), vehicle: Klucel (hydroxypropylcellulose) (HPC) 94 % of control

O=C(N/N=C/c1ccccc1O)c1ccncc1
inactive: [5] 98 % of control | [6] 98 % of control | [7] 95 % of control | [8] 96 % of control | [9] 98 % of control | [10] 98 % of control

CSC(=C[N+](=O)[O-])SC
inactive: [1] 97 % of control | [2] 106 % of control

Cc1ccc(Nc2n[nH]c(=S)s2)cc1C
inactive: [6] 93 % of control | [8] 94 % of control | [10] 109 % of control

CN(C)/C=N\c1ncnc2c1ncn2C1OC(CO)C2OC(C)(C)OC21 (stereo unspecified)
inactive: [11] 109 % of control | [12] 109 % of control | [13] 114 % of control

COc1cc(C2c3cc4c(cc3[C@@H](OC)[C@H]3COC(=O)C23)OCO4)cc(OC)c1O (stereo partly specified)
inactive: endpoint: median survival time, dose: 1.25 mg/kg/injection, schedule: Q01DX009 (ip), vehicle: saline with Tween-80 108 % of control | endpoint: median survival time, dose: 2.5 mg/kg/injection, schedule: Q01DX009 (ip), vehicle: saline with Tween-80 104 % of control | endpoint: median survival time, dose: 5.0 mg/kg/injection, schedule: Q01DX009 (ip), vehicle: saline with Tween-80 105 % of control | endpoint: median survival time, dose: 10.0 mg/kg/injection, schedule: Q01DX009 (ip), vehicle: saline with Tween-80 103 % of control

C[N+](C)(C)Cc1ncccc1OC(=O)N(c1ccccc1)c1ccccc1
inactive: endpoint: mean survival time, dose: 25.0 mg/kg/injection, schedule: Q01DX009 (ip), vehicle: saline with Tween-80 98 % of control | [14] 96 % of control | [5] 107 % of control

COC(=O)CCC(=O)C=[N+]=[N-]
inactive: endpoint: mean survival time, dose: 1.5 mg/kg/injection, schedule: Q01DX009 (ip), vehicle: other 94 % of control | endpoint: mean survival time, dose: 3.1 mg/kg/injection, schedule: Q01DX009 (ip), vehicle: other 94 % of control | endpoint: mean survival time, dose: 6.2 mg/kg/injection, schedule: Q01DX009 (ip), vehicle: other 91 % of control | endpoint: mean survival time, dose: 12.5 mg/kg/injection, schedule: Q01DX009 (ip), vehicle: other 91 % of control

c1ccc(P(=N[P+](c2ccccc2)(c2ccccc2)c2ccccc2)(c2ccccc2)c2ccccc2)cc1
inactive: endpoint: mean survival time, dose: 0.75 mg/kg/injection, schedule: Q01DX009 (ip), vehicle: saline 106 % of control | endpoint: mean survival time, dose: 1.5 mg/kg/injection, schedule: Q01DX009 (ip), vehicle: saline 103 % of control | endpoint: mean survival time, dose: 3.13 mg/kg/injection, schedule: Q01DX009 (ip), vehicle: saline with Tween-80 94 % of control | endpoint: mean survival time, dose: 3.13 mg/kg/injection, schedule: Q04DX002 (ip), vehicle: saline with Tween-80 102 % of control | endpoint: mean survival time, dose: 6.25 mg/kg/injection, schedule: Q04DX002 (ip), vehicle: saline with Tween-80 110 % of control | endpoint: mean survival time, dose: 12.5 mg/kg/injection, schedule: Q04DX002 (ip), vehicle: saline with Tween-80 90 % of control and 93 % of control

C1OC2OC3OCOC3C2O1 (stereo unspecified)
inactive: [6] 101 % of control | [8] 95 % of control | [10] 95 % of control

CC(C)(SC(c1ccccc1)(c1ccccc1)c1ccccc1)C(N)C(=O)O (stereo unspecified)
inactive: endpoint: mean survival time, dose: 25.0 mg/kg/injection, schedule: Q01DX009 (ip), vehicle: saline 106 % of control | [15] 103 % of control

C=CC1OC2CCCCC2O1 (stereo unspecified)
inactive: endpoint: mean survival time, dose: 100.0 mg/kg/injection, schedule: Q01DX001 (ip), vehicle: acetone 104 % of control

NC(CCC(=O)c1ccccn1)C(=O)O (stereo unspecified)
inactive: [15] 96 % of control | [16] 96 % of control | endpoint: mean survival time, dose: 100.0 mg/kg/injection, schedule: Q04DX003 (ip), vehicle: saline 96 % of control | endpoint: mean survival time, dose: 200.0 mg/kg/injection, schedule: Q01DX009 (ip), vehicle: saline 100 % of control | endpoint: mean survival time, dose: 200.0 mg/kg/injection, schedule: Q04DX003 (ip), vehicle: saline 98 % of control

CN(C)c1ccc(C(=O)CCN2CC=C(c3ccccc3)CC2)cc1
inactive: [11] 102 % of control

CNC(=S)N/N=C/c1c(Cl)n(-c2ccccc2)c2c(/C=N/NC(=S)NC)cccc12
inactive: endpoint: mean survival time, dose: 25.0 mg/kg/injection, schedule: Q04DX003 (ip), vehicle: Klucel (hydroxypropylcellulose) (HPC) 96 % of control | endpoint: mean survival time, dose: 50.0 mg/kg/injection, schedule: Q04DX003 (ip), vehicle: Klucel (hydroxypropylcellulose) (HPC) 93 % of control | [4] 89 % of control

COc1cc2c(cc1OC)C1C(=CCC3c4cc(OC)c(OC)cc4CC[N+]31C)C=C2 (stereo unspecified)
inactive: endpoint: mean survival time, dose: 6.25 mg/kg/injection, schedule: Q04DX003 (ip), vehicle: saline with Tween-80 102 % of control | endpoint: mean survival time, dose: 12.5 mg/kg/injection, schedule: Q04DX003 (ip), vehicle: saline with Tween-80 102 % of control | endpoint: mean survival time, dose: 25.0 mg/kg/injection, schedule: Q04DX003 (ip), vehicle: saline with Tween-80 98 % of control

COC(=O)C1C2C=CC(C2)C1C(=O)O (stereo unspecified)
inactive: endpoint: mean survival time, dose: 100.0 mg/kg/injection, schedule: Q01DX001 (ip), vehicle: saline 100 % of control | endpoint: mean survival time, dose: 200.0 mg/kg/injection, schedule: Q01DX001 (ip), vehicle: saline 98 % of control | endpoint: mean survival time, dose: 400.0 mg/kg/injection, schedule: Q01DX001 (ip), vehicle: saline 103 % of control

COc1csn[n+]1-c1ccc(C)cc1
inactive: endpoint: mean survival time, dose: 75.0 mg/kg/injection, schedule: Q01DX001 (ip), vehicle: saline 104 % of control

O=C(Nc1cccc(O)c1)OCCCCl
inactive: [6] 98 % of control | [8] 98 % of control | [10] 96 % of control

O=C1OC(/C=C\c2ccccc2)=NC/1=C\c1cc(Br)cc(Br)c1O
inactive: [11] 94 % of control | [12] 98 % of control | [13] 105 % of control

CN(C)Cc1ncccc1O
inactive: endpoint: mean survival time, dose: 50.0 mg/kg/injection, schedule: Q01DX009 (ip), vehicle: suspension in saline 110 % of control | endpoint: mean survival time, dose: 100.0 mg/kg/injection, schedule: Q01DX009 (ip), vehicle: suspension in saline 108 % of control | endpoint: mean survival time, dose: 200.0 mg/kg/injection, schedule: Q01DX009 (ip), vehicle: suspension in saline 112 % of control

C1COC2(CCC3C2C2CCC4(OCCO4)C32)O1 (stereo unspecified)
inactive: [6] 103 % of control | [8] 101 % of control | [10] 116 % of control

COc1ccc(C(=O)CC(C#N)c2ccc3c(c2)OCO3)cc1OC (stereo unspecified)
inactive: [6] 93 % of control | [8] 91 % of control | [10] 93 % of control

CCc1c(O)c2c(c(O)c1C(C)=O)C(=O)c1c(cc(O)c(C(=O)O)c1C(=O)O)C2=O
inactive: [15] 108 % of control | [16] 116 % of control

CC(C)(C)c1ccccc1O[Si](C)(C)C
inactive: [14] 105 % of control | [5] 94 % of control | [6] 97 % of control | [8] 94 % of control

Brc1sc(Br)c(Br)c1Br
inactive: endpoint: mean survival time, dose: 100.0 mg/kg/injection, schedule: Q01DX001 (ip), vehicle: saline with Tween-80 109 % of control | [5] 100 % of control | endpoint: mean survival time, dose: 200.0 mg/kg/injection, schedule: Q01DX001 (ip), vehicle: saline with Tween-80 95 % of control | [7] 101 % of control | endpoint: mean survival time, dose: 400.0 mg/kg/injection, schedule: Q01DX001 (ip), vehicle: saline with Tween-80 102 % of control | [9] 101 % of control
